Assay results reported in the Kinase Knowledgebase extract (Sharma et al. 2016).

How the values were obtained:
MAPK14 = MAPK14 (UniProt Q16539); assay: Inhibition of MAPK14 Kinase Activity
CDK2 = CDK2 (UniProt P24941); assay: Enzyme Assay

Chain of MAPK14 (Q16539 whole entry, looked up): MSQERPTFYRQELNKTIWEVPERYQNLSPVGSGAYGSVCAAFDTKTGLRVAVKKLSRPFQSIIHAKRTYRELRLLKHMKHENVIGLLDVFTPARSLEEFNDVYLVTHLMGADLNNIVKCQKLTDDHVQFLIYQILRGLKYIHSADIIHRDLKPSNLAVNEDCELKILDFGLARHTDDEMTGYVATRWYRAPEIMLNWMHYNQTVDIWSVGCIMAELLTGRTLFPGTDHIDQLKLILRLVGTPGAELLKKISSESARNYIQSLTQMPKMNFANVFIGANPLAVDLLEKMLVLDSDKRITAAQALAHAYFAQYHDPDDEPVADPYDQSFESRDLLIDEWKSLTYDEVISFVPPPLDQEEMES

| Kd (MAPK14) [nM] | IC50 (CDK2) [nM] | SMILES |
| --- | --- | --- |
| 8 | – | CC(C)(C)c1cc(NC(=O)Nc2ccc(Cl)cc2)n(-c2ccccc2)n1 |
| – | 3970 | CN1CCC(c2c(O)cc(O)c3c2O/C(=C\c2ccccc2Cl)C3=O)CC1 |
| 1400 | – | COCC(C)(C)c1cc(NC(=O)Nc2ccccc2)n(-c2ccccc2)n1 |
| 420 | – | CC(C)(C)c1cc(NC(=O)Nc2cccnc2)n(-c2ccccc2)n1 |
| – | 30 | CN1CCC(c2c(O)cc(O)c3c2O/C(=C\c2ccc(S(N)(=O)=O)cc2)C3=O)CC1 |
| 4 | – | Cc1ccc(-n2nc(C(C)(C)C)cc2NC(=O)Nc2ccccc2)cc1C |
| 130 | – | CC(C)(C)c1cc(NC(=O)NC2CCCCC2)n(-c2ccccc2)n1 |
| 760 | – | CC(C)(c1ccccc1)c1cc(NC(=O)Nc2ccccc2)n(-c2ccccc2)n1 |
| > 7000 | – | Cc1cc(NC(=O)Nc2ccccc2)n(-c2ccccc2)n1 |
| 100 | – | CC(C)(C)c1cc(NC(=O)Nc2cccc(N)c2)n(-c2ccccc2)n1 |
| 3 | – | Cc1cccc(NC(=O)Nc2cc(C(C)(C)C)nn2-c2ccccc2)c1C |
| – | > 10000 | COc1ccc2c(c1)C(=NNc1ccccc1)C(=O)N2 |
| 13 | – | CC(C)(C)c1cc(NC(=O)Nc2ccccc2)n(-c2ccccc2)n1 |
| – | 10 | CN(C)S(=O)(=O)c1ccc(NN=C2C(=O)Nc3ccc(O)cc32)cc1 |
| 47 | – | CC(C)(C)c1cc(NC(=O)NCc2ccccc2)n(-c2ccccc2)n1 |
| 500 | – | CC(C)(C)c1cc(NC(=O)Nc2ccccc2)n(C2CCCCC2)n1 |
| 200 | – | Cc1ccccc1-n1nc(C(C)(C)C)cc1NC(=O)Nc1ccccc1 |
| 1 | – | Cc1ccc(-n2nc(C(C)(C)C)cc2NC(=O)Nc2cccc3ccccc23)cc1 |
| 19 | – | COc1cccc(-n2nc(C(C)(C)C)cc2NC(=O)Nc2ccccc2)c1 |
| – | > 10000 | O=C1Nc2ccccc2C1=NNc1ccccc1 |

| Kd (MAPK14) [nM] | IC50 (CDK2) [nM] | SMILES |
| --- | --- | --- |
| 1200 | – | CC(C)(C)c1cc(NC(=O)Nc2ccncc2)n(-c2ccccc2)n1 |
| 14 | – | CC(C)(C)c1cc(NC(=O)NC2Cc3ccccc3C2)n(-c2ccccc2)n1 |
| – | > 10000 | O=C1Nc2ccc(Br)cc2C1=NNc1ccccc1 |
| 7 | – | CC(C)(C)c1cc(NC(=O)Nc2ccccc2)n(-c2ccc(N)cc2)n1 |
| > 7000 | – | CC(C)(C)c1cc(NC(N)=O)n(-c2ccccc2)n1 |
| 22 | – | CC1(c2cc(NC(=O)Nc3ccccc3)n(-c3ccccc3)n2)CCCCC1 |
| 31 | – | COc1ccc(-n2nc(C(C)(C)C)cc2NC(=O)Nc2ccccc2)cc1 |
| 2 | – | Cc1cccc(-n2nc(C(C)(C)C)cc2NC(=O)Nc2ccccc2)c1 |
| 400 | – | CC(C)(C)c1cc(NC(=O)Nc2ccccn2)n(-c2ccccc2)n1 |
| 8 | – | CC(C)(C)c1cc(NC(=O)Nc2ccccc2)n(-c2ccc3ccccc3c2)n1 |
| – | 1280 | CN1CCC(c2c(O)cc(O)c3c2O/C(=C\c2ccccc2)C3=O)CC1 |
| 12 | – | CCC(C)(C)c1cc(NC(=O)Nc2ccccc2)n(-c2ccccc2)n1 |
| 318 | – | CC(C)(C)c1cc(NC(=O)Nc2ccc(N)cc2)n(-c2ccccc2)n1 |
| 330 | – | CC(C)c1cc(NC(=O)Nc2ccccc2)n(-c2ccccc2)n1 |
| 21 | – | CC(C)(C)c1cc(NC(=O)Nc2ccccc2)n(-c2ccncc2)n1 |
| – | 310 | CN1CCC(c2c(O)cc(O)c3c2O/C(=C\c2ccc([N+](=O)[O-])cc2)C3=O)CC1 |
| 280 | – | CC1(c2cc(NC(=O)Nc3ccccc3)n(-c3ccccc3)n2)CCOCC1 |
| > 400 | – | O=C(Nc1ccccc1)Nc1cc(C2CCCCC2)nn1-c1ccccc1 |
| 260 | – | CC(C)(C)c1cc(NC(=O)NCCc2ccccc2)n(-c2ccccc2)n1 |
| 5 | – | CC(C)(C)c1cc(NC(=O)Nc2cccc3ccccc23)n(-c2ccccc2)n1 |

| SMILES | Kd (MAPK14) [nM] | IC50 (CDK2) [nM] |
| --- | --- | --- |
| Cc1ccc(-n2nc(C(C)(C)C)cc2NC(=O)Nc2ccccc2F)cc1 | 14 | – |
| Cc1ccc(-n2nc(C(C)(C)C)cc2NC(=O)Nc2ccccc2)cc1 | 3 | – |
